# Patent US9889183B2, “PKC activators and anticoagulant in regimen for treating stroke” (BLANCHETTE ROCKEFELLER NEUROSCIENCES INSTITUTE, priority 2010, dated 2018)
# Key:
# PKCε [1] = biological target: T1, PKCε (Homo sapiens, UniProt Q02156); details: cited from earlier work
# T1 construct: purchased Calbiochem
# T1 sequence (Q02156 1-737): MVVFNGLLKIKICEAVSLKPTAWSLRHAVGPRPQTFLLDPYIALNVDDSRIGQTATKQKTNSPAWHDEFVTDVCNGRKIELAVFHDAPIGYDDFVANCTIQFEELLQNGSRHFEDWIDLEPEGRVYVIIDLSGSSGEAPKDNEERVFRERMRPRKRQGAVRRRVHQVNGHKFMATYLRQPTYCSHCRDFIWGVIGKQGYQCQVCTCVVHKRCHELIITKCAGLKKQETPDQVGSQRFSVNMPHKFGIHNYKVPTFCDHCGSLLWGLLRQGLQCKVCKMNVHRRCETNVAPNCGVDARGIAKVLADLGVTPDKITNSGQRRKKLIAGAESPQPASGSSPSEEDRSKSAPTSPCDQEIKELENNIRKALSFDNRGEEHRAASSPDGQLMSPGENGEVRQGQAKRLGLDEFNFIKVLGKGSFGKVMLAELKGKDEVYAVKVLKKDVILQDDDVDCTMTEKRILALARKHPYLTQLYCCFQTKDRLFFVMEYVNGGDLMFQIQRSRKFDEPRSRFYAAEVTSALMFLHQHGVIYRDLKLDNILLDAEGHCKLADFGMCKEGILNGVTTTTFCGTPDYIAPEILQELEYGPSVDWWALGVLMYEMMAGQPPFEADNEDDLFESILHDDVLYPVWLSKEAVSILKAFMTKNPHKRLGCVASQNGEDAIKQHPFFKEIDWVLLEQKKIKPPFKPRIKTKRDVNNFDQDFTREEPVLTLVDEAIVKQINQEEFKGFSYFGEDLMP
# other PKC isoforms = assay: PKC isozyme specificity, other PKC isoforms; type: biochemical; details: data not shown
# Description: Protein kinase C assay. Rat hippocampal cells were cultured and scraped in 0.2 ml homogenization buffer (20 mM Tris-HCl, pH 7.4, 50 mM NaF, 1 μg/ml leupeptin, and 0.1 mM PMSF) and homogenized by sonication a Marsonix microprobe sonicator (5 sec, 10 W). To measure PKC, 10 μl of cell homogenate or purified PKC isozyme (purchased from Calbiochem) was incubated for 15 min at 37° C. in the presence of 10 μM histones, 4.89 mM CaCl2, 1.2 μg/μl phosphatidyl-L-serine, 0.18 μg/μl 1,2-dioctanoyl-sn-glycerol, 10 mM MgCl2, 20 mM HEPES (pH 7.4), 0.8 mM EDTA, 4 mM EGTA, 4% glycerol, 8 μg/ml aprotinin, 8 μg/ml leupeptin, and 2 mM benzamidine. […][^γ32P]ATP was added and ^32P-phosphoprotein formation was measured by adsorption onto phosphocellulose as described previously. Nelson and Alkon, J. Neurochemistry (1995), vol. 65, pp. 2350-2357. For measurements of activation by BR-101 (DCP-LA) and similar compounds. PKC activity was measured in the absence of diacylglycerol and phosphatidylserine and PKC δ, ε, η, and μ were measured in the absence of added EGTA and CaCl2, as described by Kanno et al. (J. Lipid Res. 2006, vol. 47, pp. 1146-1150). […]
# (§1) To determine their PKC isozyme specificity, fatty acid derivatives were preincubated with purified PKC for five minutes and the PKC activity was measured radiometrically.
# PKC in primary neurons = assay: PKC activity over time in rat hippocampal primary neurons; type: cell-based; details: only observed in primary neurons
# Description: (§2) Cell culture. Rat hippocampal H19-7/IGF-IR cells (ATCC, Manassas, Va.) were plated onto poly-L-lysine coated plates and grown at 35° C. in DMEM/10% FCS for several days until about 50% coverage was obtained. The cells were then induced to differentiate into a neuronal phenotype by replacing the medium with 5 ml N2 medium containing 10 ng/ml basic fibroblast growth factor at 39° C. and grown in T-75 flasks at 37° C. Human SH-SY5Y neuroblastoma cells (ATCC) were cultured in 45% F12K/45% MEM/10% FCS. Mouse N2A neuroblastoma cells were cultured in DMEM/10% FCS without glutamine. Rat hippocampal neurons from 18-day-old embryonic Sprague Dawley rat brains were plated on 12- or 96-well plates coated with poly-D-lysine (Sigma-Aldrich, St. Louis, Mo.) in B-27 neurobasal medium containing 0.5 mM glutamine and 25 μM glutamate (Invitrogen, Carlsbad, Calif.) and cultured for three days in the medium without glutamate. The neuronal cells were grown under 5% CO2 in an incubator maintained at 37° C. for 14 days.
# Protein kinase C assay. […] 0.5 Ci[^γ32P]ATP was added and ^32P-phosphoprotein formation was measured by adsorption onto phosphocellulose as described previously. […] PKC activity was measured in the absence of diacylglycerol and phosphatidylserine and PKC δ, ε, η, and μ were measured in the absence of added EGTA and CaCl2, as described by Kanno et al. (J. Lipid Res. 2006, vol. 47, pp. 1146-1150). […]
# PKCε [2] = biological target: T1, PKCε; assay: PKC assay with purified PKCε; type: biochemical
# Description: PKC assay. Recombinant PKC (1 ng of PKCα or PKCε isoform) was mixed with BR-101 (DCP-LA) in the presence of 10 micromolar histones, 5 mM CaCl2, 1.2 μg/μl phosphatidyl-L-serine, 0.18 μg/μl 1,2-dioctanoyl-sn-glycerol (DAG), 10 mM MgCl2, 20 mM HEPES (pH 7.4), 0.8 mM EDTA, 4 mM EGTA, 4% glycerol, 8 μg/ml aprotinin, 8 μg/ml leupeptin, and 2 mM benzamidine. 0.5 micro Ci[^γ32P]ATP was added. The incubation mixture was incubated for 15 min at 37 degrees in a total volume of 10 microliters. The reaction was stopped by spotting the reaction mixtures on 1×2 cm strips of cellulose phosphate paper (Whatman P81) and immediately washing twice for 1 hr in 0.5% H3PO4. The cellulose phosphate strips were counted in a scintillation counter. In some experiments, phosphatidylserine, diacylglycerol, and/or calcium were removed.
# DHA methyl ester was purchased from Cayman Chemical (Ann Arbor, Me.). PKC isozymes were from Calbiochem (San Diego, Calif.). Purified PKCε was purchased from Calbiochem.
# (§3) Protein kinase C assay. Rat hippocampal cells were cultured and scraped in 0.2 ml homogenization buffer (20 mM Tris-HCl, pH 7.4, 50 mM NaF, 1 μg/ml leupeptin, and 0.1 mM PMSF) and homogenized by sonication a Marsonix microprobe sonicator (5 sec, 10 W). To measure PKC, 10 μl of cell homogenate or purified PKC isozyme (purchased from Calbiochem) was incubated for 15 min at 37° C. in the presence of 10 μM histones, 4.89 mM CaCl2, 1.2 μg/μl phosphatidyl-L-serine, 0.18 μg/μl 1,2-dioctanoyl-sn-glycerol, 10 mM MgCl2, 20 mM HEPES (pH 7.4), 0.8 mM EDTA, 4 mM EGTA, 4% glycerol, 8 μg/ml aprotinin, 8 μg/ml leupeptin, and 2 mM benzamidine. […][^γ32P]ATP was added and ^32P-phosphoprotein formation was measured by adsorption onto phosphocellulose as described previously. Nelson and Alkon, J. Neurochemistry (1995), vol. 65, pp. 2350-2357. For measurements of activation by BR-101 (DCP-LA) and similar compounds. PKC activity was measured in the absence of diacylglycerol and phosphatidylserine and PKC δ, ε, η, and μ were measured in the absence of added EGTA and CaCl2, as described by Kanno et al. (J. Lipid Res. 2006, vol. 47, pp. 1146-1150). Low concentrations of Ca^2+ are used because high Ca^2+ interacts with the PKC phosphatidylserine binding site and prevents activation. For measurements of bryostatin activation, 1,2-diacylglycerol was omitted unless otherwise stated.
# as §1
# α-secretase = details: 10 pM; human fibroblasts; cited from earlier work
# [3] = tested on: PKC in H19-7/IGF-IR cells; assay: PKC activity over time in rat H19-7/IGF-IR hippocampal cells; type: cell-based
# Description: as §2, §3
# PKC activators that bind to the diacylglycerol binding site, including bryostatin, gnidimacrin, and phorbol esters, produce a transient activation of PKC activity, followed by a prolonged downregulation. Nelson et al., Trends in Biochem. Sci. (2009), vol. 34, pp. 136-145. This was confirmed in cultured rat hippocampal cells. Incubation of rat H19-7/IGF-IR cells with (0.04 nM and 0.2 nM) bryostatin produced a 2-fold activation that lasted 30 min, followed by a 20% downregulation that returned to baseline by 24 hours (data not shown). […] This sustained activation was only observed in primary neurons.
compound,measurement,setting,value
"CCCCCC1CC1CC1CC1CCCCCCCC(=O)O (stereo not drawn) [BR-101, 2-[(2-pentylcyclopropyl)methyl]cyclopropaneoctanoic acid]","concentration of maximal effect, selective PKCε activation",PKCε [1],100 nM
same,effects on the other PKC isoforms,other PKC isoforms,relatively small effects
same,time PKC remained elevated,PKC in primary neurons,at least four
same,activation of PKCε (in words),PKCε [2]; at 10 μM,effective activator
"CCC/C=C/C=C/C(=O)O[C@H]1/C(=C/C(=O)OC)C[C@H]2C[C@H]([C@@H](C)O)OC(=O)C[C@H](O)C[C@@H]3C[C@H](OC(C)=O)C(C)(C)[C@](O)(C[C@@H]4C/C(=C/C(=O)OC)C[C@H](/C=C/C(C)(C)[C@]1(O)O2)O4)O3 [Bryostatin-1, bryostatin-1]",increase of initial rate of α-secretase activity,α-secretase,16 fold
same,PKC downregulation following activation,[3]; 0.04 nM and 0.2 nM,20%
same,duration of PKC activation,[3]; 0.04 nM and 0.2 nM,30 min
same,time of return of PKC to baseline,[3]; 0.04 nM and 0.2 nM,≤ 24 h
same,PKC activation,"[3]; 0.04 nM and 0.2 nM, H19-7/IGF-IR cells",2 fold
same,PKC activity at 8 hours (downregulation),"[3]; treated cells, 8 hours, data not shown",at or near the baseline
"CCC1CC1CC1CC1CC1CC1CC1CC1CC1CC1CC1CC1CCC(=O)OC (stereo not drawn) [BR-111, methyl-3-(2-((2-((2-((2-((2-((2-ethylcyclopropyl)methyl)cyclopropyl)methyl)cyclopropyl)methyl)-cyclopropyl)methyl)cyclopropyl)methyl)cyclopropyl)propanoate]",concentration needed to activate PKC relative to BR-101 (DCP-LA),PKCε [2],approximately 100 times lower
same,activation of purified PKCε (in words),"PKCε [2]; FIG. 7, methyl esters",activated purified PKCε to a similar extent
